Publication PMC9861175, “Diversity and Biosynthetic Potential of Fungi Isolated from St. John’s Island, Singapore” (International Journal of Molecular Sciences, 2023)
Where two headings read alike, the source gives them in different places.

Key:
C. albicans ATCC 10231 = experiment: Antifungal growth inhibition (OD) screen against C. albicans; assay type: cell-based; settings: Candida albicans, read-out: IC50 CA
Procedure: (§1) Dried extracts were resuspended in MeOH to obtain 20 mg/mL sample concentration followed by sonication for complete solubilizing. Ten microliters (10 µL) of the extracts per well were added to 96-well plates followed by drying via centrifugal vacuum concentrator. Upon drying, 100 µL of 10% DMSO was added to each well to obtain a sample concentration of 2 mg/mL. Ten microliters (10 µL) were subsequently used for the antimicrobial bioassays where 90 µL of the respective microbial cultures were added to each sample, leading to a final extract concentration of 200 µg/mL. For preliminary screening, extracts from all 30 fungi were evaluated for antimicrobial activities using the highest concentration of 200 µg/mL.
For the C. albicans screen, a single colony from freshly streaked C. albicans on Sabouraud dextrose agar (SDA) was inoculated into 25-mL of Sabouraud liquid medium (SLM) and incubated at 35 °C with shaking at 150 rpm for 18 hrs. Subsequently, 1% of the culture (250 µL) was prepared with SLM and incubated at 35 °C with shaking for 6 h. OD600 was monitored until it reached approximately 0.8. Cell density (D) of the culture was calculated using the following equation: D = [(30 × OD600) − 8] × 10^6 CFU/mL. Final cell densities were adjusted to 2.5 × 10^5 CFU/mL and inoculated as 90 µL suspensions into 96-well plates. Similar to the antibacterial assays, upon addition of 10 µL of extracts to the cell suspensions, the plates were incubated at 37 °C for 20 h prior to OD readings. For each extract tested, three technical replicates were used. Amphotericin B was used as the antifungal standard control in C. albicans screen.

[1] = test system: Escherichia coli ATCC 25922; experiment: Antibacterial broth microdilution growth inhibition (OD600) against E. coli; assay type: cell-based; settings: read-out: IC50 EC
Procedure: as §1
(§2) For the antibacterial bioassays, the test microorganisms S. aureus, Methicillin-resistant S. aureus (MRSA) and E. coli were plated on Mueller-Hinton II agar (Merck, Germany) and incubated overnight at 37 °C. Colonies were added to a glass tube containing 0.85% saline solution until the turbidity was equivalent to 0.5 McFarland Standard (approximate cell density 1.5 × 10^8 CFU/mL). Cell suspensions were then diluted in MH2 liquid media to obtain a final cell density of 5 × 10^5 CFU/mL. Ninety microliters (90 µL) of cell suspensions were added to 10 µL of extracts in the 96-well bioassay plates and incubated at 37 °C for 20 h. For each extract tested, three replicates were used. The optical density (OD) of each well was measured using a Hidex Sense microplate reader (Hidex, Finland) at 600 nm. Percentage growth inhibition was calculated according to the following formula with the quality of the bioassay assessed based on the Z-prime analysis. A Z-prime of ≥0.7 indicates the robustness of the high throughput screening data. Gentamicin was used as the standard control against S. aureus and E. coli while vancomycin was used as the standard control in the MRSA assay.

[2] = test system: Staphylococcus aureus ATCC 25923; experiment: Antibacterial broth microdilution growth inhibition (OD600) against S. aureus; assay type: cell-based; settings: for IC50: read-out: IC50 SA
Procedure: as §1, §2

human hepatoma cell line = settings: cited from earlier work
[3] = test system: Methicillin-resistant Staphylococcus aureus ATCC 33591; experiment: Antibacterial broth microdilution growth inhibition (OD600) against MRSA; assay type: cell-based; settings: 20 h
Procedure: as §1, §2

[4] = test system: A549 human lung carcinoma cells ATCC CCL-185; experiment: Cytotoxicity assay (PrestoBlue, 72 h) on A549 cells; assay type: cell-based; settings: for IC50: Homo sapiens, read-out: IC50 A549
Procedure: The cytotoxic effect of the isolated compounds on the A549 human lung carcinoma cell line was determined as described previously. A549 cells at a concentration of 3.3 × 10^4 cells/mL in Dulbecco’s Modified Eagle Medium (DMEM, Gibco, Life Technologies, Bleiswijk, The Netherlands) were treated with isolated compounds at concentrations ranging from 0.1 μM to 200 μM and incubated for 72 h at 37 °C in 5% CO2 and 95% relative humidity. Cytotoxic effect of the compounds was measured after the addition of PrestoBlue™ cell viability reagent (Thermo Fisher Scientific, USA) and incubation for 2 h by reading of the plates’ fluorescence at an excitation wavelength of 560 nm and emission wavelength of 590 nm using the Tecan Infinite M1000 Pro reader. Puromycin served as the standard control.

[5] = test system: L5178Y mouse lymphoma cell line; parameters: method as in doi:10.1016/j.phytol.2014.12.010; settings: cited from earlier work
[6] = mycotoxins associated with food spoilage; cited from earlier work
[7] = ATCC10231, isolated compounds, C. albicans ATCC 10231, 20 h
[8] = ATCC25922, isolated compounds, E. coli ATCC 25922, 20 h, 37 °C
[9] = Staphylococcus aureus, ATCC25923, isolated compounds, S. aureus ATCC 25923, 20 h, 37 °C
[10] = Staphylococcus aureus, isolated compounds, MRSA ATCC 33591, 37 °C, read-out: IC50 MRSA
[11] = isolated compounds, A549 cells, 72 h
[12] = Staphylococcus aureus, ATCC25923, 20 h, isolated compounds, S. aureus ATCC 25923, 20 h, 37 °C
[13] = Staphylococcus aureus, read-out: IC50 MRSA, isolated compounds, MRSA ATCC 33591, 37 °C
[14] = Staphylococcus aureus, read-out: IC50 MRSA

Molecule	IC50 (C. albicans ATCC 10231; [7]) [µM]	IC50 [1, 8] [µM]	IC50 [2, 9] [µM]	IC50 [4, 11] [µM]	IC50 ([4]; A549, 72 h) [µM]	other results
C[C@@H]1[C@H](O)[C@@H](C)/C=C/C=C/C=C/C=C/C=C/C=C/C=C/[C@H](O[C@@H]2O[C@H](C)[C@@H](O)[C@H](N)[C@@H]2O)C[C@@H]2O[C@](O)(C[C@@H](O)C[C@@H](O)[C@H](O)CC[C@@H](O)C[C@@H](O)CC(=O)O[C@H]1C)C[C@H](O)[C@H]2C(=O)O [Amphotericin B, reference compound]	0.14					
CNC(C)C1CCC(N)C(OC2C(N)CC(N)C(OC3OCC(C)(O)C(NC)C3O)C2O)O1 (stereo not shown) [Gentamicin, reference compound]		0.67	0.22			
COC(=O)c1ccccc1NC(=O)C(CC[S+](C)[O-])NC(=O)c1cnc2c(=O)n(C)c(=O)n(C)c2n1 (stereo not shown) [Penilumamide A]	> 200	> 200	88	100		cytotoxicity activity against a human hepatoma cell line (human hepatoma cell line): weak cytotoxicity activity; antimicrobial activity against S. aureus (in words) ([2]; isolated compounds): weak; IC50 [3, 10]: > 200 µM; cytotoxic activity against A549 cells (in words) ([4]; isolated compounds): weak
COC(=O)c1ccccc1NC(=O)C(CCSC)NC(=O)c1cnc2c(n1)c(=O)n(C)c(=O)n2C (stereo not shown) [Penilumamide B]	> 200	> 200	> 200	113		IC50 [3, 10]: > 200 µM
CC(NC(=O)c1cnc2c(n1)c(=O)n(C)c(=O)n2C)C(=O)Nc1ccccc1C(N)=O (stereo not shown) [Penilumamide D]	> 200	> 200	> 200	> 200		cytotoxicity activity against a human hepatoma cell line (human hepatoma cell line): weak cytotoxicity activity; IC50 [3, 10]: > 200 µM
COc1ccc(C2SSC34CC5(O)C(O)C=CC(O)C5ON3C(=O)C2N(C)C4=O)c(O)c1OC (stereo not shown) [Pretrichodermamide C]	> 200	> 200			> 200	activity against the L5178Y mouse lymphoma cell line [5]: inactive; IC50 [2, 12]: < 50 µM; IC50 ([2]; isolated compounds, S. aureus ATCC 25923, 20 h, 37 °C): 34.7 µM; IC50 [3, 13]: < 50 µM; IC50 ([3]; read-out: IC50 MRSA, isolated compounds, MRSA ATCC 33591, 37 °C): 41.6 µM; cytotoxic activity against A549 cells (in words) ([4]; isolated compounds): no cytotoxic activity
COc1ccc(C[C@H](N)C(=O)N[C@H]2[C@@H](O)[C@H](n3cnc4c(N(C)C)ncnc43)O[C@@H]2CO)cc1 [Puromycin, reference compound]				0.25		
CN[C@H](CC(C)C)C(=O)N[C@H]1C(=O)N[C@@H](CC(N)=O)C(=O)N[C@H]2C(=O)N[C@H]3C(=O)N[C@H](C(=O)N[C@H](C(=O)O)c4cc(O)cc(O)c4-c4cc3ccc4O)[C@H](O)c3ccc(c(Cl)c3)Oc3cc2cc(c3O[C@@H]2O[C@H](CO)[C@@H](O)[C@H](O)[C@H]2O[C@H]2C[C@](C)(N)[C@H](O)[C@H](C)O2)Oc2ccc(cc2Cl)[C@H]1O [Vancomycin, reference compound]						IC50 [3, 14]: 1.5 µM
COC1=C(c2c(OC)cc3cc4c(c(O)c3c2O)C(=O)OC(C)C4)C(=O)c2c(cc3c(c2O)C(=O)OC(C)C3)C1=O (stereo not shown) [Viomellein]	17.9	> 100			42	IC50 [2, 12]: 3.2 µM; IC50 [3, 13]: 2.9 µM; liver and kidney damage in animals [6]: known to cause liver and kidney damage in animals
COc1cc2cc3c(c(O)c2c(O)c1-c1c(OC)cc2cc4c(c(O)c2c1O)C(=O)O[C@H](C)C4)C(=O)O[C@H](C)C3 [Vioxanthin]					77.1	IC50 ([1]; ATCC25922, 20 h): > 200 µM; IC50 ([2]; Staphylococcus aureus, ATCC25923, 20 h): 3 µM; IC50 [3, 14]: 1.6 µM; IC50 (C. albicans ATCC 10231; ATCC10231, 20 h): 36.4 µM; liver and kidney damage in animals [6]: known to cause liver and kidney damage in animals
COC1=C(C2=C(OC)C(=O)c3cc4c(c(O)c3C2=O)C(=O)OC(C)C4)C(=O)c2c(cc3c(c2O)C(=O)OC(C)C3)C1=O (stereo not shown) [Xanthomegnin]	18.6	> 200			65.6	IC50 [2, 12]: 19.2 µM; IC50 [3, 13]: 35.3 µM; liver and kidney damage in animals [6]: known to cause liver and kidney damage in animals
Penilumamide E						cytotoxicity activity against a human hepatoma cell line (human hepatoma cell line): weak cytotoxicity activity
